SMILES strings stand for the structures. Bounds are passed on as bounds.

The assay has as its target T1, Recombinant human HSD17B13 enzyme (Homo sapiens, UniProt Q7Z5P4).
T1 sequence (Q7Z5P4 20-300): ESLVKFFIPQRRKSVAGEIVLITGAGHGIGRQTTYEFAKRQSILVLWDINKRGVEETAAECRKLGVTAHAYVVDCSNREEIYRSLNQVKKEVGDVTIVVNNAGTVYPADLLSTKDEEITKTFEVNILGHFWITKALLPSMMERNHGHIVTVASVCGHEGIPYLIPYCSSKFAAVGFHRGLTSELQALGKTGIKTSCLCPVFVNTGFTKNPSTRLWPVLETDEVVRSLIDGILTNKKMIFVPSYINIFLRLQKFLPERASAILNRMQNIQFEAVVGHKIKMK
Put plainly: HSD17b13 NAD(P)H-Glo biochemical assay. As to conditions: for IC50: 50 uM estradiol, 1 mM NAD+, NAD(P)H-Glo luminescence, read-out: HSD17β13 IC50; for inhibition at 30 µM: at 30 uM compound, read-out: HSD17β13 % at 30 uM. Here is the method: Example B-1: HSD17b13 NAD(P)H-Glo Biochemical Assay
Recombinant human HSD17B13 enzyme. Substrate: estradiol (Sigma β-Estradiol E8875), 100 mM in DMSO. Cofactor: NAD+ Grade I free acid (Sigma 10127965001), 20 mM in H2O. Assay buffer final concentration: 20 mM Tris pH7.4 with 0.002% Tween-20 and 0.02% BSA. Assay performed in 384 well solid bottom plate (Corning 3570). Enzymatic activity detected by NAD(P)H-Glo™ Detection System (Promega G9062).
Inhibitor compounds were serially diluted in DMSO and then further diluted in assay buffer to a 10× concentration consisting of 1% DMSO.
HSD17b13 enzyme was diluted in 1× assay buffer to the desired enzyme concentration based on the specific activity of the enzyme lot. 20 uL of diluted enzyme was added to each well along with 2.5 uL of 10× inhibitor solution. Assay plate was incubated at RT for 20 minutes, and then 2.5 uL of a 10× substrate/cofactor mix was added to each well for a final concentration of 50 uM estradiol and 1 mM NAD+. Assay plate was incubated at 37° C. for 3 hours. NAD(P)H-Glo™ Detection System reagents were prepared according to manufacturer's specifications, and 25 uL was added to each well. After incubating for 1 hour at RT, luminescence was measured.

In general, IC50 refers to the concentration that gives 50% inhibition. On to `Oc1c(F)cc2cnn(-c3ccc(-c4ccc(Cl)cc4)cc3)c2c1F` [Compound 13, 1-(4′-Chloro-[1,1′-biphenyl]-4-yl)-5,7-difluoro-1H-indazol-6-ol], for which the IC50 is less than 0.1 µM. On the same count and under the same terms, the result for `Oc1ccc(-c2ccc(-n3ncc4cc(F)c(O)c(F)c43)cc2)cc1` [Compound 13.1, 5,7-Difluoro-1-(4′-hydroxy-[1,1′-biphenyl]-4-yl)-1H-indazol-6-ol] reads less than 0.1 µM; that for `Oc1cc2c(cnn2-c2ccc(-c3ccccc3O)cc2)cc1F` [Compound 13.2, 5-Fluoro-1-(2′-hydroxy-[1,1′-biphenyl]-4-yl)-1H-indazol-6-ol], 0.1 to 1 µM. With `Oc1cc2c(cnn2-c2ccc(-c3ccccc3F)cc2)cc1F` [Compound 13.3, 5-Fluoro-1-(2′-fluoro-[1,1′-biphenyl]-4-yl)-1H-indazol-6-ol], the IC50 fell in the range of 0.1 to 1 µM. Turning to `Oc1cc2c(cnn2-c2ccc(-c3cccc(F)c3)cc2)cc1F` [Compound 13.4, 5-Fluoro-1-(3′-fluoro-[1,1′-biphenyl]-4-yl)-1H-indazol-6-ol], the IC50 is 0.1 to 1 µM. As to `Oc1cc2c(cnn2-c2ccc(-c3ccc(F)cc3)cc2)cc1F` [Compound 13.5, 5-Fluoro-1-(4′-fluoro-[1,1′-biphenyl]-4-yl)-1H-indazol-6-ol], the IC50 lay within 0.1 to 1 µM. Same read-out and setting: then `Oc1cc2c(cnn2-c2ccc(-c3ccccc3Cl)cc2)cc1F` [Compound 13.6, 1-(2′-Chloro-[1,1′-biphenyl]-4-yl)-5-fluoro-1H-indazol-6-ol], with 0.1 to 1 µM. The same measure, in the same setting: then `Oc1cc2c(cnn2-c2ccc(-c3cccc(Cl)c3)cc2)cc1F` [Compound 13.7, 1-(3′-Chloro-[1,1′-biphenyl]-4-yl)-5-fluoro-1H-indazol-6-ol], with 0.1 to 1 µM; and `Oc1cc2c(cnn2-c2ccc(-c3ccc(Cl)cc3)cc2)cc1F` [Compound 13.8, 1-(4′-Chloro-[1,1′-biphenyl]-4-yl)-5-fluoro-1H-indazol-6-ol], with 0.1 to 1 µM. Same read-out and setting: the result for `Cc1ccccc1-c1ccc(-n2ncc3cc(F)c(O)cc32)cc1` [Compound 13.9, 5-Fluoro-1-(2′-methyl-[1,1′-biphenyl]-4-yl)-1H-indazol-6-ol] reads 0.1 to 1 µM. Take `Cc1cccc(-c2ccc(-n3ncc4cc(F)c(O)cc43)cc2)c1` [Compound 13.10, 5-Fluoro-1-(3′-methyl-[1,1′-biphenyl]-4-yl)-1H-indazol-6-ol]: the IC50 fell in the range of 0.1 to 1 µM. As to `Cc1ccc(-c2ccc(-n3ncc4cc(F)c(O)cc43)cc2)cc1` [Compound 13.11, 5-Fluoro-1-(4′-methyl-[1,1′-biphenyl]-4-yl)-1H-indazol-6-ol], the IC50 was in the range of 0.1 to 1 µM. As for `Oc1cccc(-c2ccc(-n3ncc4cc(F)c(O)c(F)c43)cc2)c1` [Compound 13.12, 5,7-Difluoro-1-(3′-hydroxy-[1,1′-biphenyl]-4-yl)-1H-indazol-6-ol], the IC50 was less than 0.1 µM. On the same count and under the same terms, the result for `Oc1cc2c(cnn2-c2ccc(-c3ccccn3)cc2)cc1F` [Compound 13.13, 5-Fluoro-1-(4-(pyridin-2-yl)phenyl)-1H-indazol-6-ol] reads 1 to 30 µM.

Consider `Oc1cc2c(cnn2-c2ccc(-c3cccnc3)cc2)cc1F` [Compound 13.14, 5-Fluoro-1-(4-(pyridin-3-yl)phenyl)-1H-indazol-6-ol], for which the inhibition at 30 µM (3 h) worked out at 40%.

Take `Oc1cc2c(cnn2-c2ccc(-c3ccncc3)cc2)cc1F` [Compound 13.15, 5-Fluoro-1-(4-(pyridin-4-yl)phenyl)-1H-indazol-6-ol]: the inhibition at 30 µM (3 h) was 40%. For the compound `N#Cc1ccccc1-c1ccc(-n2ncc3cc(F)c(O)cc32)cc1` [Compound 13.16, 4′-(5-Fluoro-6-hydroxy-1H-indazol-1-yl)-[1,1′-biphenyl]-2-carbonitrile], the IC50 lay within 0.1 to 1 µM. The same measure, in the same setting: the result for `N#Cc1cccc(-c2ccc(-n3ncc4cc(F)c(O)cc43)cc2)c1` [Compound 13.17, 4′-(5-Fluoro-6-hydroxy-1H-indazol-1-yl)-[1,1′-biphenyl]-3-carbonitrile] reads 0.1 to 1 µM; that for `N#Cc1ccc(-c2ccc(-n3ncc4cc(F)c(O)cc43)cc2)cc1` [Compound 13.18, 4′-(5-Fluoro-6-hydroxy-1H-indazol-1-yl)-[1,1′-biphenyl]-4-carbonitrile], less than 0.1 µM. On the same count and under the same terms, then `Oc1cc(-c2ccc(-n3ncc4cc(F)c(O)c(F)c43)cc2)ccc1Cl` [Compound 13.19, 1-(4′-Chloro-3′-hydroxy-[1,1′-biphenyl]-4-yl)-5,7-difluoro-1H-indazol-6-ol], with less than 0.1 µM; and `COc1cccc(-c2ccc(-n3ncc4cc(F)c(O)cc43)cc2)c1` [Compound 13.20, 5-Fluoro-1-(3′-methoxy-[1,1′-biphenyl]-4-yl)-1H-indazol-6-ol], with 0.1 to 1 µM; and `COc1ccc(-c2ccc(-n3ncc4cc(F)c(O)cc43)cc2)cc1` [Compound 13.21, 5-Fluoro-1-(4′-methoxy-[1,1′-biphenyl]-4-yl)-1H-indazol-6-ol], with 0.1 to 1 µM. The same measure, in the same setting: the result for `OCc1cccc(-c2ccc(-n3ncc4cc(F)c(O)cc43)cc2)c1` [Compound 13.22, 5-Fluoro-1-(3′-(hydroxymethyl)-[1,1′-biphenyl]-4-yl)-1H-indazol-6-ol] reads 1 to 30 µM. `OCc1ccc(-c2ccc(-n3ncc4cc(F)c(O)cc43)cc2)cc1` [Compound 13.23, 5-Fluoro-1-(4′-(hydroxymethyl)-[1,1′-biphenyl]-4-yl)-1H-indazol-6-ol]: the IC50 fell in the range of 0.1 to 1 µM.

Regarding `CS(=O)(=O)c1ccccc1-c1ccc(-n2ncc3cc(F)c(O)cc32)cc1` [Compound 13.24, 5-Fluoro-1-(2′-(methylsulfonyl)-[1,1′-biphenyl]-4-yl)-1H-indazol-6-ol], the IC50 lay in the range of 1 to 30 µM.

Consider `CS(=O)(=O)c1cccc(-c2ccc(-n3ncc4cc(F)c(O)cc43)cc2)c1` [Compound 13.25, 5-Fluoro-1-(3′-(methylsulfonyl)-[1,1′-biphenyl]-4-yl)-1H-indazol-6-ol], for which the IC50 is 0.1 to 1 µM. Same read-out and setting: the result for `CS(=O)(=O)c1ccc(-c2ccc(-n3ncc4cc(F)c(O)cc43)cc2)cc1` [Compound 13.26, 5-Fluoro-1-(4′-(methylsulfonyl)-[1,1′-biphenyl]-4-yl)-1H-indazol-6-ol] reads 0.1 to 1 µM. Still for that read-out and setting: then `Nc1cccc(-c2ccc(-n3ncc4cc(F)c(O)cc43)cc2)c1` [Compound 13.27, 1-(3′-Amino-[1,1′-biphenyl]-4-yl)-5-fluoro-1H-indazol-6-ol], with 1 to 30 µM.

For `Nc1ccc(-c2ccc(-n3ncc4cc(F)c(O)cc43)cc2)cc1` [Compound 13.28, 1-(4′-Amino-[1,1′-biphenyl]-4-yl)-5-fluoro-1H-indazol-6-ol], the IC50 lay within 0.1 to 1 µM. The same measure, in the same setting: the result for `O=C(O)c1cccc(-c2ccc(-n3ncc4cc(F)c(O)cc43)cc2)c1` [Compound 13.29, 4′-(5-Fluoro-6-hydroxy-1H-indazol-1-yl)-[1,1′-biphenyl]-3-carboxylic acid] reads 1 to 30 µM.

On to `O=C(O)c1ccc(-c2ccc(-n3ncc4cc(F)c(O)cc43)cc2)cc1` [Compound 13.30, 4′-(5-Fluoro-6-hydroxy-1H-indazol-1-yl)-[1,1′-biphenyl]-4-carboxylic acid], for which the IC50 lay in the range of 1 to 30 µM. Same read-out and setting: the result for `CC(=O)Nc1cccc(-c2ccc(-n3ncc4cc(F)c(O)cc43)cc2)c1` [Compound 13.31, N-(4′-(5-Fluoro-6-hydroxy-1H-indazol-1-yl)-[1,1′-biphenyl]-3-yl)acetamide] reads 1 to 30 µM.

In the case of `CC(=O)Nc1ccc(-c2ccc(-n3ncc4cc(F)c(O)cc43)cc2)cc1` [Compound 13.32, N-(4′-(5-Fluoro-6-hydroxy-1H-indazol-1-yl)-[1,1′-biphenyl]-4-yl)acetamide], under “3 h, at 100 uM compound, read-out: HSD17β13 % at 100 uM”, the inhibition at 100 µM is 40%.

As to `CS(=O)(=O)Nc1cccc(-c2ccc(-n3ncc4cc(F)c(O)cc43)cc2)c1` [Compound 13.33, N-(4′-(5-Fluoro-6-hydroxy-1H-indazol-1-yl)-[1,1′-biphenyl]-3-yl)methanesulfonamide], the IC50 was 1 to 30 µM. For the compound `CS(=O)(=O)Nc1ccc(-c2ccc(-n3ncc4cc(F)c(O)cc43)cc2)cc1` [Compound 13.34, N-(4′-(5-Fluoro-6-hydroxy-1H-indazol-1-yl)-[1,1′-biphenyl]-4-yl)methanesulfonamide], the IC50 lay in the range of 0.1 to 1 µM.

Consider `NC(=O)c1cccc(-c2ccc(-n3ncc4cc(F)c(O)cc43)cc2)c1` [Compound 13.35, 4′-(5-Fluoro-6-hydroxy-1H-indazol-1-yl)-[1,1′-biphenyl]-3-carboxamide], for which the IC50 fell in the range of 0.1 to 1 µM.

Regarding `NC(=O)c1ccc(-c2ccc(-n3ncc4cc(F)c(O)cc43)cc2)cc1` [Compound 13.36, 4′-(5-Fluoro-6-hydroxy-1H-indazol-1-yl)-[1,1′-biphenyl]-4-carboxamide], the IC50 lay in the range of 0.1 to 1 µM. Still for that read-out and setting: then `NS(=O)(=O)c1cccc(-c2ccc(-n3ncc4cc(F)c(O)cc43)cc2)c1` [Compound 13.37, 4′-(5-Fluoro-6-hydroxy-1H-indazol-1-yl)-[1,1′-biphenyl]-3-sulfonamide], with 0.1 to 1 µM.

The values above are taken from US20240083853A1, “HSD17B13 INHIBITORS AND USES THEREOF” (FL2022-001, Inc., priority 2020, published 2024).
